The data set in a line: Solubility of compound (B) in solvent (solid content of saturated solution). Type of data set: physicochemical. The method, then:
Specifically, whether a specific solvent is the component (C) or the component (D) is determined depending on the type of the component (B). […] In more detail, the solubility is determined by measuring the solid content of the component (B) in a solution consisting of the component (B) and the solvent.
The supernatant liquid of the resulting mixture was dried on a hot plate at 120° C. for one hour and weighed to calculate the solid content.

Setting [1] is: solvent: IPA (isopropyl alcohol).

Some results are limits rather than exact numbers.

In the case of `C=CC(=O)OCCn1c(=O)n(CCOC(=O)C=C)c(=O)n(CCOC(=O)C=C)c1=O` [Example B-3, Tris(2-hydroxyethyl)isocyanurate triacrylate], the solubility in solvent (solvent: EtOH (ethanol)) came out at 1.8 wt %, the solubility in solvent under setting [1] is reported as 7.1 wt %, the solubility in solvent (solvent: MeOH (methanol)) was 49 wt % and the solubility in solvent (solvent: water) is recorded as 1.2 wt %.

`C=CC(=O)OCC(COCC(COC(=O)C=C)(COC(=O)C=C)COC(=O)C=C)(COC(=O)C=C)COC(=O)C=C` [Example B-1, Dipentaerythritol hexaacrylate]: the solubility in solvent entry under setting [1] is reported as “≧50 wt %” and the solubility in solvent result (solvent: MeOH (methanol)) is “≧50 wt %”.

With “Tricyclodecanediyldimethanol diacrylate [Example B-2]”, the solubility in solvent result (solvent: EtOH (ethanol)) is on record as “≧50 wt %”, the solubility in solvent result under setting [1] is recorded as “≧50 wt %”, the solubility in solvent entry (solvent: MeOH (methanol)) is on record as “≧50 wt %” and the solubility in solvent (solvent: water) is listed as below 0.1 wt %.
